Earlier results as cited in patent publication EP3463364B1, “PYRAZINE DERIVATIVES FOR USE IN THE TREATMENT OF DISEASES ASSOCIATED WITH CELL CYCLE DYSREGULATION” (University of Patras, priority 2016, dated 2017).

Target: T1, Geminin-Cdtl interaction (Homo sapiens, UniProt Q9H211)
T1 sequence (Q9H211 1-546): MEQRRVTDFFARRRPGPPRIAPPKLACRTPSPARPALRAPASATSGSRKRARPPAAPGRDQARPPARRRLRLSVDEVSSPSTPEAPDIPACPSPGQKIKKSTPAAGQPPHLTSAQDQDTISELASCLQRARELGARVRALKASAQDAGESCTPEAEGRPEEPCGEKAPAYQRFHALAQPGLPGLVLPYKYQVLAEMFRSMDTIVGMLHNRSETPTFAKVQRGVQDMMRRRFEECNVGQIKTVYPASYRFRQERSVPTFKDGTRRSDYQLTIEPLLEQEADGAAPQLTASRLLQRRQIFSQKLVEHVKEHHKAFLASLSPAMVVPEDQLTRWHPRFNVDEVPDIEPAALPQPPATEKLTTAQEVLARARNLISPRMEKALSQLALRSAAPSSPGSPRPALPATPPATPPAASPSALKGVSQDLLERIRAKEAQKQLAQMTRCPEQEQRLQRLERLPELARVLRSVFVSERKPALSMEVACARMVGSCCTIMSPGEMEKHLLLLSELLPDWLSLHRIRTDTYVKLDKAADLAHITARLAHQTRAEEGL
Conditions: in vitro, through binding to the Cdtl licensing factor; literature; cited from earlier work

SMILES	inhibition of the Geminin-Cdtl interaction
COC1=C(OC)C(=O)C(C/C=C(\C)CC/C=C(\C)CC/C=C(\C)CC/C=C(\C)CC/C=C(\C)CC/C=C(\C)CC/C=C(\C)CC/C=C(\C)CC/C=C(\C)CCC=C(C)C)=C(C)C1=O [coenzyme Q10]	inhibit the interaction of the two proteins in vitro
CCCCCCCC/C=C\CCCCCCCC(=O)O [oleic acid (C18:1), oleic acid]	inhibit the interaction of the two proteins in vitro
